In publication PMC7034129, “C-2 phenyl replacements to obtain potent quinoline-based Staphylococcus aureus NorA inhibitors” (Journal of Enzyme Inhibition and Medicinal Chemistry, 2020):
Where two headings read alike, the source gives them in different places. Marks after values point to notes of the source that are not given here. Values belong to the compound of their own block, whether it stands above or below them.

Experiments:
SA-1199B [1] = assay: Membrane potential (polarisation) assays, BacLight kit, DiOC2(3); format: cell-based, Staphylococcus aureus; conditions: 30 min; for depolarised S. aureus membrane: 10 µg/mL
Description: Membrane potential assays were carried out by measuring the effect of 1 and 37a on the membrane potential using the BacLight Bacterial Membrane Potential Kit (Molecular Probes, Life Technologies) according to the manufacturer’s instructions. Briefly, SA-1199B was grown in MHB at 37 °C until reaching an OD600 of 0.6. Bacterial cells were then washed in PBS and diluted to 1 × 10^6 CFU/mL with filtered PBS (filter 0.22 µm) in flow cytometry tubes. Ten microliters of 3 mM 3,3-diethyloxacarbocyanine iodide (DiOC2(3) in DMSO) was added to each tube (final concentration 30 µM) and mixed. Then, 1 or 37a from a stock solution in DMSO (10 mg/mL) was added to reach final concentrations of 1, 5, and 10 µg/mL. As positive control, 10 µL of 500 µM carbonyl cyanide m-chlorophenylhydrazone (CCCP, final concentration 5 µM) was used to eradicate the proton gradient by eliminating the membrane potential. The samples were analysed after 30 min by measuring the fluorescence using a cytometer Attune NxT (ThermoFisher Scientific) with a laser emitting at 488 nm and collecting in the green and red channels. The red to green fluorescence ratio was determined and normalised against the emission from the DiOC2(3) blank tube having 1 ml of the bacterial suspension and a final concentration of DiOC2(3) of 30 µM. The results are presented as the percentage of depolarised membranes compared with the drug-free control.
Since efflux pumps need a proton gradient along the bacterial membrane, its modification/disruption can lead to an efflux inhibition. However, this effect cannot be related to a specific EPI activity; on the contrary, it relies on a non-specific interruption of the energy source (protons) that efflux pumps use to extrude their substrates by an antiport mechanism. A typical example of a compound inhibiting efflux pumps activity by this non-specific mechanism is represented by carbonyl cyanide m-chlorophenyl hydrazone (CCCP). […] Membrane polarisation was assessed by cytofluorimeter analysis using the fluorescent probe 3,3-diethyloxacarbocyanine iodide (DiOC2(3)) as its distribution is proton gradient-sensitive.

[2] = system: human leukemic monocyte cell line (THP-1); parameters: method as in PMID 30067360; conditions: THP-1 cells; cited from earlier work
[3] = system: human leukemic monocyte cell line (THP-1); assay: Cell viability assay (ATP bioluminescence); conditions: ratio between CC50 (THP-1) and minimum EPI concentration able to reduce by 4-fold CPX MIC
Description: (§1) THP-1 cells were grown in RPMI 1640 supplemented with 10% heat-inactivated foetal calf serum, 10,000 units of penicillin, and 10 µg of streptomycin/mL overnight to confluence. […] Cell viability was then evaluated using an ATP bioluminescence kit (Via Light kit; Cambrex). Results are expressed as 50% cytotoxic concentration (CC50). The CC50 was defined as the concentration required to reduce the cell number by 50% compared to that for the untreated controls. Each concentration was tested in triplicate.

[4] = parameters: method as in PMID 30067360; conditions: in silico and in vitro, mouse liver microsomes 2 h; cited from earlier work
SA-1199B [5] = system: SA-1199B; parameters: method as in PMID 30067360; conditions: as previously reported; cited from earlier work
S. aureus SA-1199B = format: cell-based, Staphylococcus aureus; conditions: for compound concentration reducing the CPX MIC by 4-fold: chequerboard with CPX; for synergistic effect with CPX: compound concentration below 25 µg/mL
Description: (§2) MICs assays were performed using broth microdilution method in 96 wells-microtiter plates, following the CLSI guidelines.
(§3) Chequerboard assays and time-kill curves were performed as previously described.

[6] = system: S. aureus strain SA-1199B (norA+/GrlA mutation); assay: Synergistic assays: compounds at 25 µg/mL with scalar concentrations of CPX; format: cell-based, Staphylococcus aureus; conditions: compound at 25 µg/mL
Description: as §2
(data not shown). […] Worthy of note, among the five active compounds, three were thiophene derivatives (35b, 36b and 37a) displaying their activity regardless of the position of the sulphur atom on the thiophene ring.

SA-1199B [7] = assay: MIC evaluation of compound alone (broth microdilution); format: cell-based; conditions: Staphylococcus aureus, read-out: antibacterial activity alone (MIC)
Description: as §2
The sum of both FIC values led to a FIC index (FICI) < 0.27 showing a significant synergistic effect as widely recognised for FICI values <0.5[40].

Haemolysis assays = format: cell-based
Description: Haemolysis assays were performed as previously described.
In order to evaluate the toxic effects of the derivative 37a, haemolysis assays were performed at scalar compound concentrations in comparison with the starting hit 1 (Figure 4).

SA-1199B [8] = assay: Time-kill curves in combination with CPX; format: cell-based, Staphylococcus aureus; conditions: 24 h
Description: as §3

NorA efflux pump = molecular target: T1, NorA efflux pump (Staphylococcus aureus, UniProt P0A0J7); assay: EtBr efflux assays; format: cell-based; conditions: read-out: EtBr efflux inhibition
T1 construct: monitoring bacterial fluorescence of SA-1199B, overexpressing norA gene; endogenous in cells; host or cells: Staphylococcus aureus SA-1199B (norA+/GrlA mutation)
Description: The loss of EtBr from S. aureus SA-1199B was determined fluorometrically as previously described. The effect of various concentrations of tested compounds on the EtBr efflux of SA-1199B was compared to that in their absence, allowing the calculation of the percentage reduction in efflux.
Since EtBr is a known NorA substrate resulting fluorescent only when inside bacterial cells, monitoring bacterial fluorescence of SA-1199B, overexpressing norA gene, through a fluorimeter is a fast method to indirectly evaluate NorA inhibition. […] Indeed, we commonly consider as active NorA EPIs those compounds having an EtBr efflux inhibition ≥70%[17]^,[18].

[9] = system: S. aureus strain SA-1199 (norA wild-type); assay: Synergistic assay with CPX against norA wild-type strain; format: cell-based, Staphylococcus aureus; conditions: compound at 25 µg/mL, scalar CPX
Description: as §2

[10] = Cell viability assay (ATP bioluminescence); conditions: human
Description: as §1

melting point: 84 to 86 °C
SMILES: CCN(CC)CCOc1cc(-c2cccs2)nc2ccccc12

melting point: 66 to 67 °C
SMILES: CCN(CC)CCOc1cc(-c2ccsc2)nc2ccccc12

melting point: 99 to 101 °C
SMILES: Clc1ccc(-c2cc(OCCN3CCCCC3)c3ccccc3n2)s1

SMILES: CCCOc1ccc(-c2cc(OCCN(CC)CC)c3ccccc3n2)cc1 [Compound 1, reference compound]
depolarised bacterial membrane (SA-1199B [1]; 1 µg/mL): retained a significant depolarising effect
depolarised bacterial membrane (SA-1199B [1]; 5 µg/mL): retained a significant depolarising effect
depolarised S. aureus membrane (SA-1199B [1]): > 50%

SMILES: CCCOc1ccc(-c2cc(OCCN3CCCCC3)c3cc(OC)ccc3n2)cc1 [Compound 2]
CC50 [2]: >100^b µg/mL
SI, selectivity index [3]: >128
metabolic stability [4]: good metabolic stability
depolarised bacterial membrane (SA-1199B [5]): about 20%
CPX MIC reduction (S. aureus SA-1199B; compound at 0.39 µg/mL): 2 fold

SMILES: CCCOc1ccc(-c2cc(OCCN(CC)CC)c3ccccc3n2)nc1.Cl [Compound 30a, N,N-diethyl-2-{[2–(5-propoxypyridin-2-yl)quinolin-4-yl]oxy}ethanamine hydrochloride]
melting point: 212 to 213 °C
reduction of the CPX MIC [6]: 4 fold
compound concentration reducing the CPX MIC by 4-fold (S. aureus SA-1199B): 6.25 µg/mL

SMILES: CCCOc1ccc(-c2cc(OCCN3CCCCC3)c3ccccc3n2)nc1 [Compound 30b, 4–(2-Piperidin-1-ylethoxy)-2–(5-propoxypyridin-2-yl)quinoline]
melting point: 90 to 91 °C
reduction of the CPX MIC [6]: 4 fold
compound concentration reducing the CPX MIC by 4-fold (S. aureus SA-1199B): 12.5 µg/mL

SMILES: CCCOc1ccc(-c2cc(OCCN(CC)CC)c3ccccc3n2)cn1.Cl [Compound 31a, N,N-diethyl-2-{[2–(6-propoxypyridin-3-yl)quinolin-4-yl]oxy}ethanamine hydrochloride]
melting point: 188 to 190 °C
synergistic effect / EPI activity with CPX [6]: lost EPI activity

SMILES: CCCOc1ccc(-c2cc(OCCN3CCCCC3)c3ccccc3n2)cn1.Cl [Compound 31b, 4–(2-Piperidin-1-ylethoxy)-2–(6-propoxypyridin-3-yl)quinoline hydrochloride]
melting point: 223 to 224 °C
synergistic effect / EPI activity with CPX [6]: lost EPI activity

SMILES: CCN(CC)CCOc1cc(-c2ccccn2)nc2ccccc12.Cl [Compound 32a, N,N-diethyl-2-[(2-pyridin-2-ylquinolin-4-yl)oxy]ethanamine hydrochloride]
melting point: 173 to 174 °C
synergistic effect / EPI activity with CPX [6]: lost EPI activity

SMILES: c1ccc(-c2cc(OCCN3CCCCC3)c3ccccc3n2)nc1 [Compound 32b, 4–(2-Piperidin-1-ylethoxy)-2-pyridin-2-ylquinoline]
melting point: 77 to 79.5 °C
synergistic effect / EPI activity with CPX [6]: lost EPI activity

SMILES: CCN(CC)CCOc1cc(-c2cccnc2)nc2ccccc12.Cl [Compound 33a, N,N-diethyl-2-[(2-pyridin-3-ylquinolin-4-yl)oxy]ethanamine hydrochloride]
melting point: 181 to 182 °C
synergistic effect / EPI activity with CPX [6]: lost EPI activity

SMILES: c1cncc(-c2cc(OCCN3CCCCC3)c3ccccc3n2)c1 [Compound 33b, 4–(2-Piperidin-1-ylethoxy)-2-pyridin-3-ylquinoline]
melting point: 101.5 to 102.5 °C
synergistic effect / EPI activity with CPX [6]: lost EPI activity

SMILES: CCN(CC)CCOc1cc(-c2ccncc2)nc2ccccc12 [Compound 34a, N,N-diethyl-2-[(2-pyridin-4-ylquinolin-4-yl)oxy]ethanamine]
melting point: 73.5 to 74 °C
synergistic effect / EPI activity with CPX [6]: lost EPI activity

SMILES: Cl.c1ccc2c(OCCN3CCCCC3)cc(-c3ccncc3)nc2c1 [Compound 34b, 4–(2-Piperidin-1-ylethoxy)-2-pyridin-4-ylquinoline hydrochloride]
melting point: 183.5 to 185 °C
synergistic effect / EPI activity with CPX [6]: lost EPI activity

SMILES: Cl.c1csc(-c2cc(OCCN3CCCCC3)c3ccccc3n2)c1 [Compound 35b, 4–(2-piperidin-1-ylethoxy)-2–(2-thienyl)quinoline hydrochloride]
melting point: 208 to 209.5 °C
reduction of the CPX MIC [6]: 4 fold
synergistic effect with CPX (S. aureus SA-1199B): did not retain any synergistic effect

SMILES: c1ccc2c(OCCN3CCCCC3)cc(-c3ccsc3)nc2c1 [Compound 36b, 4–(2-Piperidin-1-ylethoxy)-2–(3-thienyl)quinoline]
melting point: 109.5 to 111 °C
reduction of the CPX MIC [6]: 4 fold
synergistic effect with CPX (S. aureus SA-1199B): did not retain any synergistic effect

SMILES: CCN(CC)CCOc1cc(-c2ccc(Cl)s2)nc2ccccc12.Cl [Compound 37a, (2-{[2–(5-Chloro-2-thienyl)quinolin-4-yl]oxy}ethyl)diethylamine hydrochloride]
MIC (SA-1199B [7]): > 25 µg/mL
melting point: 189 to 191 °C
haemolytic effect (Haemolysis assays; 20 µg/mL): about 10%
haemolytic effect relative to starting hit 1 (Haemolysis assays; 20 µg/mL): 3 fold
haemolytic activity (Haemolysis assays; concentrations ≤ 5 µg/mL): below 2%
bactericidal activity of combination (time-kill) (SA-1199B [8]; 37a at 3.13 and 6.25 µg/mL + CPX at its MIC): strongly significant and definitely higher bactericidal activity than that shown by CPX alone
bactericidal effect of combination (time-kill) (SA-1199B [8]; 37a at 3.13 and 6.25 µg/mL + CPX at ¼ MIC): the same bactericidal effect as CPX tested at its MIC
inhibition at 50 µM (NorA efflux pump): 74.3 ± 3.5%
reduction of the CPX MIC [6]: 32 fold
synergistic effect with CPX [9]: did not exhibit any significant synergistic effect
SI, selectivity index [3]: 16.2
CC50 at 24 h [10]: 6.33 µg/mL
depolarised bacterial membrane (SA-1199B [1]; 1 µg/mL): about 20%
depolarised bacterial membrane (SA-1199B [1]; 5 µg/mL): about 20%
depolarised S. aureus membrane (SA-1199B [1]): > 50%
concentration reducing CPX MIC, fold lower than own MIC (S. aureus SA-1199B): ≥ 64 fold
FIC (MIC in combination/MIC alone) (S. aureus SA-1199B; 37a + CPX): < 0.0156
FIC index (FICI) (S. aureus SA-1199B; 37a + CPX): < 0.27
compound concentration reducing the CPX MIC by 4-fold (S. aureus SA-1199B): 0.39 µg/mL
CPX MIC in combination with compound (S. aureus SA-1199B; with 37a): 2.5 µg/mL
